Laboratory results: patent publication USRE47689E1, “Compounds for treating spinal muscular atrophy” (PTC Therapeutics, Inc., priority 2011, dated 2019)
Where two headings read alike, the source gives them in different places.

What was measured:
Smn protein = Smn protein assay in cultured cells (SMN HTRF); format: cell-based, human; conditions: 48 hours; for EC1.5x (concentration giving 1.5-fold Smn protein increase): SMA Type 1 patient fibroblast cells (GM03813), 7-point concentration curve, SMN HTRF, concentration producing 1.5 times Smn protein vs DMSO vehicle control, read-out: EC1.5x for Smn protein expression; for maximum fold (Fold) increase of Smn protein: SMA patient fibroblast cells, 7-point concentration data, fold increase relative to vehicle control (SMN HTRF)
Summary of the method: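 Lysates in RIPA with protease inhibitors are incubated overnight at room temperature with HTRF anti-SMN antibodies. EC1.5x is derived from fold increase in ΔF over vehicle.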

[1] = tested on: SMN2 minigene (full length SMN2 minigene mRNA containing SMN2 exon 7); test: SMN2 minigene mRNA splicing RT-qPCR assay in cultured cells; format: cell-based, human; conditions: Homo sapiens, HEK293-H, read-out: EC1.5x for production of full length SMN2 mRNA
Summary of the method: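 HEK293H cells stably carrying the SMN2-A minigene treated 24 h at 37° C with compound (DMSO, 200× stock), then lysed. Multiplex RT-qPCR (SMN primers 0.4 μM final; 40 cycles) measures full-length exon 7-containing minigene mRNA, normalized to GAPDH and to vehicle; EC1.5x derived and binned by stars.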

[2] = HEK293H cells stably transfected with SMN2-A minigene, 24 hours, 7-point concentration curve, 1.5-fold relative to vehicle-treated cells

| SMILES | melting point [°C] | EC1.5x (concentration giving 1.5-fold Smn protein increase) (Smn protein) [nM] | maximum fold (Fold) increase of Smn protein (Smn protein) | EC (1.5-fold) [1, 2] [µM] | EC (1.5-fold) ([1]; 24 h) [µM] |
| --- | --- | --- | --- | --- | --- |
| Cc1cc(Cl)c2nc(-c3cc4ccc(N5CCN(C)CC5)cc4oc3=O)cn2c1 [Compound 343, 3-(8-chloro-6-methylimidazo[1,2-a]pyridin-2-yl)-7-(4-methylpiperazin-1-yl)-2H-chromen-2-one] | 245 to 253 | – | * (maximum fold increase of ≤1.2) | 0.1 to 0.3 | – |
| CC1(C)CN(c2ccc3cc(-c4cn5cccc(Cl)c5n4)c(=O)oc3c2)CCN1 [Compound 249, 3-(8-chloroimidazo[1,2-a]pyridin-2-yl)-7-(3,3-dimethylpiperazin-1-yl)-2H-chromen-2-one] | 216 to 220 | – | ** (fold increase between >1.2 and ≤1.35) | 0.3 to 1 | – |
| CN(C)CCN(C)c1ccc2cc(-c3cn4cccnc4n3)c(=O)oc2c1 [Compound 130, 7-{[2-(dimethylamino)ethyl](methyl)amino}-3-(imidazo[1,2-a]pyrimidin-2-yl)-2H-chromen-2-one] | 175 to 180 | – | * (maximum fold increase of ≤1.2) | 1 to 3 | – |
| Cc1cc(Cl)c2nc(-c3cc4ccc(N5CCCN(C)CC5)cc4oc3=O)cn2c1 [Compound 344, 3-(8-chloro-6-methylimidazo[1,2-a]pyridin-2-yl)-7-(4-methyl-1,4-diazepan-1-yl)-2H-chromen-2-one] | 224 to 230 | – | ** (fold increase between >1.2 and ≤1.35) | 0.3 to 1 | – |
| O=C(O)C(F)(F)F.O=c1oc2cc(N3CCNCC3)ccc2cc1-c1nc(C(F)(F)F)cs1 [Compound 52, 7-(piperazin-1-yl)-3-[4-(trifluoromethyl)-1,3-thiazol-2-yl]-2H-chromen-2-one trifluoroacetate] | 221 to 229 | – | * (maximum fold increase of ≤1.2) | 0.3 to 1 | – |
| COc1cccc(-c2cc3ccc(N4CCN(C)CC4)cc3oc2=O)n1 [Compound 257, 3-(6-methoxypyridin-2-yl)-7-(4-methylpiperazin-1-yl)-2H-chromen-2-one] | 162 to 164 | – | * (maximum fold increase of ≤1.2) | 1 to 3 | – |
| Cc1cn2cc(-c3cc4ccc(N[C@@H]5C[C@H]6CCC[C@@H](C5)N6C)cc4oc3=O)nc2c(C)n1 [Compound 702, 3-(6,8-dimethylimidazo[1,2-a]pyrazin-2-yl)-7-{[(3-exo)-9-methyl-9-azabicyclo[3.3.1]non-3-yl]amino}-2H-chromen-2-one] | 279 to 287 | – | * (maximum fold increase of ≤1.2) | – | 1 to 3 |

Further lines, with some results ahead:

| melting point [°C] | SMILES | EC1.5x (concentration giving 1.5-fold Smn protein increase) (Smn protein) [nM] | maximum fold (Fold) increase of Smn protein (Smn protein) | EC (1.5-fold) [1, 2] [µM] | EC (1.5-fold) ([1]; 24 h) [µM] |
| --- | --- | --- | --- | --- | --- |
| 172 to 177 | Cc1cn2cc(-c3cc4ccc(OC5CCNCC5)cc4oc3=O)nc2c(C)n1 [Compound 897, 3-(6,8-dimethylimidazo[1,2-a]pyrazin-2-yl)-7-(piperidin-4-yloxy)-2H-chromen-2-one] | < 300 | ***** (fold increase >1.65) | < 0.1 | – |
| 189 to 191 | COc1cc(-c2cc3ccc(N4CCN[C@@H](C)C4)cc3oc2=O)ccc1F [Compound 577, 3-(4-fluoro-3-methoxyphenyl)-7-[(3S)-3-methylpiperazin-1-yl]-2H-chromen-2-one] | – | ** (fold increase between >1.2 and ≤1.35) | 1 to 3 | – |
| 211 to 213 | COc1ccc(-c2cc3ccc(N4CCNCC4)cc3oc2=O)cc1 [Compound 447, 3-(4-methoxyphenyl)-7-(piperazin-1-yl)-2H-chromen-2-one] | – | * (maximum fold increase of ≤1.2) | 1 to 3 | – |
| 286 to 289 | Cc1cn2cc(-c3cc4ccc(N5CCCN(C)CC5)cc4oc3=O)cnc2n1 [Compound 662, 7-(4-methyl-1,4-diazepan-1-yl)-3-(2-methylimidazo[1,2-a]pyrimidin-6-yl)-2H-chromen-2-one] | 1000 to 3000 | *** (fold increase between >1.35 and ≤1.5) | < 0.1 | – |
| 181 to 184 | Cc1cn2cc(-c3cc4ccc(CCCNC(C)CO)cc4oc3=O)nc2c(C)n1 (stereo not shown) [Compound 881, 3-(6,8-dimethylimidazo[1,2-a]pyrazin-2-yl)-7-{3-[(1-hydroxypropan-2-yl)amino]propyl}-2H-chromen-2-one] | < 300 | **** (fold increase between >1.5 and ≤1.65) | < 0.1 | – |
| 264 to 268 | Cc1cn2cc(-c3cc4ccc(N5C[C@@H](O)[C@H](N6CCCC6)C5)cc4oc3=O)cc2c(C)n1 [Compound 751, 3-(1,3-dimethylpyrrolo[1,2-a]pyrazin-7-yl)-7-[(3′R,4′R)-4′-hydroxy-1,3′-bipyrrolidin-1′-yl]-2H-chromen-2-one] | – | ** (fold increase between >1.2 and ≤1.35) | < 0.1 | – |
| 188 to 190 | Cc1cn2cc(-c3cc4ccc(C5=CC(C)(C)NC(C)(C)C5)cc4oc3=O)nc2c(C)n1 [Compound 949, 3-(6,8-dimethylimidazo[1,2-a]pyrazin-2-yl)-7-(2,2,6,6-tetramethyl-1,2,3,6-tetrahydropyridin-4-yl)-2H-chromen-2-one] | < 300 | ***** (fold increase >1.65) | < 0.1 | – |
| 140 to 143 | COc1ccc(-c2cc3ccc(N4CCN[C@@H](C)C4)cc3oc2=O)cc1OC [Compound 383, 3-(3,4-dimethoxyphenyl)-7-[(3S)-3-methylpiperazin-1-yl]-2H-chromen-2-one] | 1000 to 3000 | **** (fold increase between >1.5 and ≤1.65) | 0.1 to 0.3 | – |
| 210 to 215 | Cc1nc(Cl)cn2cc(-c3cc4ccc(N5CC[C@H](N(C)C)C5)cc4oc3=O)nc12 [Compound 765, 3-(6-chloro-8-methylimidazo[1,2-a]pyrazin-2-yl)-7-[(3S)-3-(dimethylamino)pyrrolidin-1-yl]-2H-chromen-2-one] | – | * (maximum fold increase of ≤1.2) | 0.3 to 1 | – |
| 175 to 177 | Cc1cn2cc(-c3cc4ccc(OCCNCCO)cc4oc3=O)nc2c(C)n1 [Compound 959, 3-(6,8-dimethylimidazo[1,2-a]pyrazin-2-yl)-7-{2-[(2-hydroxyethyl)amino]ethoxy}-2H-chromen-2-one] | 300 to 1000 | *** (fold increase between >1.35 and ≤1.5) | < 0.1 | – |
| 195 to 202 | Cc1cn2cc(-c3cc4ccc(OCCN5CC[C@@H](O)C5)cc4oc3=O)nc2c(C)n1 [Compound 941, 3-(6,8-dimethylimidazo[1,2-a]pyrazin-2-yl)-7-{2-[(3R)-3-hydroxypyrrolidin-1-yl]ethoxy}-2H-chromen-2-one] | 1000 to 3000 | **** (fold increase between >1.5 and ≤1.65) | < 0.1 | – |
